Tests used:
[1] = test system: MDA-MB-453 cells (low P-STAT3); assay: WST cell proliferation assay, MDA-MB-453; assay type: cell-based, human; settings: 0.1-100 μM, 48 h, WST-8
Procedure: (§1) Cells were plated in a 96-well tissue culture plate (1000 cells per well) and incubated for 48 h. After incubation, the cells were treated with vehicle, 0.1–100 μM BENDA, or HP2 for 48 h. Samples were assayed in triplicate. After incubation, WST-8 solution (10 μL; Dojindo Molecular Technologies, Rockville, MD, USA) was added to each well and incubated at 37°C for 4 h, and the absorbance was read at 450 nm.

[2] = biological target: T1, nuclear STAT3 of MDA-MB-468 cells (Homo sapiens, UniProt P40763); assay: STAT3 DNA binding assay (TransAM ELISA); assay type: cell-based; settings: MDA-MB-468, 24 h; BENDA 25, 50, 100 μM, HP2 100 μM
T1 construct: endogenous in cells; host or cells: MDA-MB-468
Procedure: The DNA-binding activity of STAT3 was evaluated with a TransAM ELISA kit (Active Motif, Carlsbad, CA, USA). The assay and nuclear extract preparation were performed according to the manufacturer’s instructions. Heat-denatured nuclear extract was used as a negative control. The nuclear extract (20 μg) was added to each well of a 96-well microtiter plate coated with immobilized oligonucleotides containing the STAT3 consensus binding site and incubated at room temperature for 1 h. They were incubated with anti-STAT3 antibody for 1 h at room temperature, followed by HRP-conjugated antibody for 1 h at room temperature. The developing solution was added, the reaction was terminated by the addition of stop solution, and the absorbance was measured at 450 nm with a reference wavelength of 655 nm (SpectraMax M5SK, Molecular Devices, Sunnyvale, CA, USA).

[3] = test system: MDA-MB-468 cells (high P-STAT3); assay: WST cell proliferation assay, MDA-MB-468; assay type: cell-based, human; settings: 0.1-100 μM, 48 h, WST-8
Procedure: as §1

[4] = biological target: T2, STAT3-DNA complex (c-myc promoter) in MDA-MB-468 cells (Homo sapiens, UniProt P40763); assay: ChIP assay, c-myc promoter binding by STAT3; assay type: cell-based; settings: MDA-MB-468, 8 h; BENDA 25, 50, 100 μM, HP2 50, 100 μM
T2 construct: endogenous in cells; host or cells: MDA-MB-468
Procedure: A ChIP assay was performed with an ExactaChIP Human/Mouse STAT3 ChIP kit (R&D Systems, Minneapolis, MN, USA). MDA-MB-468 cancer cells were fixed with 1% formaldehyde and treated with the lysis buffer. After sonication, anti-STAT3 antibody or normal mouse IgG was added to the extract, followed by precipitation with Protein G Plus/Protein A Agarose Suspension. The eluted DNA fraction was used for PCR with human c-myc primers.

[5] = biological target: T3, STAT3-CFP / STAT3-YFP in HEK293 cells (Homo sapiens, UniProt P40763); assay: FRET assay of STAT3 dimerization; assay type: cell-based; settings: HEK293, 10, 20 or 50 μM, pretreatment before 50 ng/mL IL-6 stimulation
T3 construct: expressed in transfected cells; host or cells: HEK293
Procedure: The expression vectors for the fusion proteins STAT3-CFP and STAT3-YFP were prepared by the addition of STAT3 cDNA to pAmCyan1-N1 and pZsyellow1-N1. The vector mixture (1:1) was transfected into HEK293 cells with Lipofectamine 2000. The cells were cultured with 2% FBS DMEM for 48 h in a 96-well microtiter plate, treated with 0, 10, 20, or 50 μM BENDA or HP2 in a final DMSO concentration of 0.2% for 24 h, and then stimulated with 50 ng/mL IL-6 for a further 1 h. Fluorescence signals were measured (SpectraMax M5SK). The signals measured by FRET (excitation/emission: 436/528 nm) were corrected for crosstalk signals from cyan (excitation/emission: 436/488 nm) and yellow (excitation/emission: 517/528 nm).

[6] = biological target: T4, cellular STAT3 in MDA-MB-468 cells (Homo sapiens, UniProt P40763); assay: Pull-down assay using Bio-BENDA, anti-STAT3 immunoprecipitation; assay type: cell-based; settings: 50 μM Bio-BENDA plus excess free drug, 4 h
T4 construct: endogenous in cells; host or cells: MDA-MB-468
Procedure: MDA-MB-468 cells were treated with biotinylated BENDA (Bio-BENDA) in the presence or absence of an excess amount of free drugs for 4 h and then lysed in PhosphoSafe™ Extraction Reagent (Merck, Darmstadt, Germany). Lysate (200 μL) was precleared with a mixture of Protein G Plus/Protein A Agarose Suspension (EMD Millipore, Billerica, MA, USA) for 1 h at 4°C and protein A and G agarose were removed by centrifugation at 13,000 rpm for 10 min. The lysate (200 μL) was immunoprecipitated with STAT3 antibody (1 μL) overnight at 4°C on a shaker and the immunocomplex was captured by the addition of a Protein G Plus/Protein A Agarose Suspension (30 μL) slurry for 1 h at 4°C. Samples were washed five times with lysis buffer and then boiled four times in SDS-PAGE sample buffer and run on an SDS-PAGE gel. The protein was transferred to a nitrocellulose membrane. The membranes were blocked in 5% skim milk in TBS/0.1% Tween 20. They were then incubated with streptavidin-HRP diluted at 1:2000 in 1.5% skim milk in TBS (pH7.4)/0.1% Tween 20 overnight at 4°C. Immunoblots were developed by using a chemiluminescent substrate.

[7] = biological target: T5, recombinant human STAT3 SH2 domain (Homo sapiens, UniProt P40763); assay: AlphaScreen SH2 binding assay, STAT3; settings: AlphaScreen, 50 nM protein, FITC-GpYLPQTV; read-out: IC50, inhibition of STAT3-SH2 binding to phosphotyrosine peptide
T5 construct: Full-length cDNAs were obtained from a human cDNA library by PCR; Avi-tag (biotinylated in BirA-BL21) (N); made in house; host or cells: Escherichia coli BirA-BL21
Procedure: AlphaScreen assays were performed in a final reaction volume of 25 μL of the assay buffer, containing 10 mM HEPES-NaOH (pH 7.4), 50 mM NaCl, 1 mM EDTA (pH 8.0), 0.1% NP-40, and 10 ng/mL BSA in a 96-well microtiter plate at 25°C. The labeled Phospho-Tyr (pTyr) peptide probe was 5-carboxyfluorescein (FITC)-GpYLPQTV for STAT3, FITC-GpYDKPHVL for STAT1, and FITC-PSpYVNVQN for Grb2. A DMSO solution of BENDA was incubated with 50 nM of each SH2-containing protein for 15 min, 50 nM of the corresponding FITC-pTyr peptide was added, and the mixture was incubated for 90 min. Streptavidin-coated donor beads and anti-FITC acceptor beads were added and incubated for 90 min before the signals were measured with an Envision Xcite plate reader (PerkinElmer Life Sciences, Waltham, MA, USA).

[8] = biological target: T6, rhSTAT3 (Homo sapiens, UniProt P40763); assay: Competition assay with cysteine-blocking reagent Alexa Fluor 488 C5 maleimide; assay type: binding; settings: 50 or 100 μM compound, 2 h
T6 construct: Full-length cDNAs were obtained from a human cDNA library by PCR; Avi-tag (biotinylated in BirA-BL21) (N); made in house; host or cells: Escherichia coli BirA-BL21
Procedure: rhSTAT3 (0.89 μM) in 100 mM HEPES was incubated with 10 μM Alexa Fluor 488 C5 maleimide (Invitrogen, Paisley, UK), a thiol-reactive probe, in the presence or absence of 50 or 100 μM BENDA or HP2 for 2 h at room temperature. Samples were diluted in SDS-PAGE sample buffer without boiling or 2-mercaptoethanol and run on an SDS-PAGE gel. The protein was transferred to a nitrocellulose membrane and then blotted with Ni-HRP. The Alexa-labeled rhSTAT3 was analyzed by fluorescence (excitation/emission: 493/516 nm) and western blotting with Ni-HRP.

T1 sequence (P40763 2-770 limits assumed): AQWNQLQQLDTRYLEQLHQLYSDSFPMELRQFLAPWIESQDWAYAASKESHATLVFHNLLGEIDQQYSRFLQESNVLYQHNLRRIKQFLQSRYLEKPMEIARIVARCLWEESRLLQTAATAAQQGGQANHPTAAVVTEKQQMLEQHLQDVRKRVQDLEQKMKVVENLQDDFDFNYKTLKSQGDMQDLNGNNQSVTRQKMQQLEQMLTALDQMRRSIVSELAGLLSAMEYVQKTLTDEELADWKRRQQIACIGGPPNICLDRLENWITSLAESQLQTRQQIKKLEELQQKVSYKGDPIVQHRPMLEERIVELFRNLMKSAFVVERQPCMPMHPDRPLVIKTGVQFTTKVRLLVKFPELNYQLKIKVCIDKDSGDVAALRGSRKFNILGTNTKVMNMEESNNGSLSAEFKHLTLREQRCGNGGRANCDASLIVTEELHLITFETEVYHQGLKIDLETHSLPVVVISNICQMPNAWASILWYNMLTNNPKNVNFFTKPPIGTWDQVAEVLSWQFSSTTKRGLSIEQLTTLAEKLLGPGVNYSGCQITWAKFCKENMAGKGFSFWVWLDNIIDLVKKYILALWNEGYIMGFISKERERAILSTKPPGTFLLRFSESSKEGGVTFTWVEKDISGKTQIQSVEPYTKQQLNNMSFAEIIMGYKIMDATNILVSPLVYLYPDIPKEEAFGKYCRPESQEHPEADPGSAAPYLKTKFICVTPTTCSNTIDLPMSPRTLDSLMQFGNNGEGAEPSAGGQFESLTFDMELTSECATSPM
T4 sequence (P40763 2-770 limits assumed): as above
T2 sequence (P40763 2-770 limits assumed, one chain of several): as the sequence (P40763 2-770 limits assumed) above
T3 sequence (P40763 whole entry): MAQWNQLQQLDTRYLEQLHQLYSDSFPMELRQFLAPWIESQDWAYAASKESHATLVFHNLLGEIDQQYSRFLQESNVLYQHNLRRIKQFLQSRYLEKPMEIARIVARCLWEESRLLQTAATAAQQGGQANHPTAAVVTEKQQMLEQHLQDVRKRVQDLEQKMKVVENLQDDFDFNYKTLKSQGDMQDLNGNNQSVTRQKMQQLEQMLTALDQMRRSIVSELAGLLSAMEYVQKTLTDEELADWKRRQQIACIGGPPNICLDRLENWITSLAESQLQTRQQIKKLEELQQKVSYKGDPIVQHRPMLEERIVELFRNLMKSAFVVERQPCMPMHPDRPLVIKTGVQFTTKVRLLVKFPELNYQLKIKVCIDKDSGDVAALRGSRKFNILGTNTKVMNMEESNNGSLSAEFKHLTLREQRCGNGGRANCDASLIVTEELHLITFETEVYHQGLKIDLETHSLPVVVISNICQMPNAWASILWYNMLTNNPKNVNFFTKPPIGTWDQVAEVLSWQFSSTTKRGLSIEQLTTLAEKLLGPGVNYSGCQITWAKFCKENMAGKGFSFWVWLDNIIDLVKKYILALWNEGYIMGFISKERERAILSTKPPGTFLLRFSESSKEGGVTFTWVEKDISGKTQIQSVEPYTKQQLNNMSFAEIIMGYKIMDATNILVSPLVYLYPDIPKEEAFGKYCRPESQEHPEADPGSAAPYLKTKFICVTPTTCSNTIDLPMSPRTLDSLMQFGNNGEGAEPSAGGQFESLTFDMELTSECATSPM
T6 sequence (P40763 whole entry): as above
T5 sequence (P40763 whole entry, the tested form may be a part): as the sequence (P40763 whole entry) above

Inhibition of STAT3 binding to oligonucleotides containing STAT3 consensus binding site [2]: did not
Amplified c-myc promoter band in STAT3 ChIP [4]: clearly detected
Effect on FRET signals (STAT3 dimerization) [5]: unchanged
Competition of Bio-BENDA STAT3 band intensity by excess free drug [6]: no reduction
IC50 [7]: > 100 µM
Effect on fluorescence intensity of Alexa-labeled rhSTAT3 [8]: hardly observed
Compound: Cn1c(CCCC(=O)O)nc2cc(N(CCO)CCO)ccc21 [HP2, dihydroxy bendamustine]
Inhibition of proliferation of MDA-MB-453 cells [1]: did not inhibit proliferation
Inhibition of proliferation of MDA-MB-468 cells [3]: did not inhibit proliferation
